Laboratory results: article PMC8985176, “Structural transformation of methasterone with Cunninghamella blakesleeana and Macrophomina phaseolina” (RSC Advances, 2022)
Values after ≈ are worked out from the molar mass of the structure shown. Read-outs that look alike come from different tables or passages of the source.

Legend:
[1] = test system: nitric oxide (NO) production; test: Nitric oxide (NO) production inhibitory assay (Griess method, LPS-stimulated J774.2 macrophages); assay type: cell-based, mouse
Procedure: The J774.2 cell line (mouse macrophage) was obtained from (European Collection of Cell Cultures, Salisbury, UK). It was cultivated in […] flasks (IWAKI, Asahi Techno Glass, Shizuoka, Japan), containing DMEM (Sigma-Aldrich, Steinheim, Germany) and fetal bovine serum (FBS) (10%) (GIBCO, New York, NY, USA) and 1% streptomycin/penicillin, and were incubated in 5% CO2 at 37 °C. Fully-grown cells (10^6 cells per mL) were transferred into the 96-well plate, and NO synthase was added into the wells by E. coli (30 μg mL^−1) lipopolysaccharide (LPS) (DIFCO Laboratories, Detroit, MI, USA) for NO production. Samples were tested with different concentrations (1, 10, and 25 μg mL^−1), and placed in CO2 (5%) at 37 °C. N^G monomethyl L-arginine acetate (LNMMA) was used as a standard NO inhibitor. Griess method was used to analyze the accumulation of nitrite in the cells.[35] IC50 values were calculated by a Microsoft Excel-based formula.

[2] = test system: MCF-7 (breast cancer) cell line; test: Cytotoxicity MTT assay, MCF-7 cells; assay type: cell-based; conditions: Homo sapiens, MCF7, 48 h
Procedure: (§1) MCF-7 (breast cancer), NCI-H460 (lung cancer), HeLa (cervical cancer) cell lines, and BJ (normal human fibroblast) cell lines were collected from cell culture biobank (PCMD, ICCBS). DMEM medium was used for MCF-7, HeLa, and BJ, and RPMI (ATCC modified medium) was used for NCI-H460. The media was supplemented with 10% FBS, 100 IU mL^−1 of penicillin, and 100 μg mL^−1 of streptomycin, and kept at 37 °C in a 5% CO2 incubator. The inhibition was investigated by MTT assay. Briefly, 100 μL per well of cell solutions (10 × 10^4 cells per mL MCF-7 cells, 5 × 10^4 cells per mL NCI-H460 cells, 6 × 10^4 cells per mL HeLa cells, or 5 × 10^4 cells per mL BJ cells), were added into 96-well plate and incubated for 24 h at 37 °C, before treatment with 6.25–50 μM of compounds or positive control doxorubicin for 48 h. After this, 20 μL of MTT (5 mg mL^−1) was added to each well and then incubated for 4 h at 37 °C. Then 100 μL DMSO was added to each well to dissolve the purple formazan crystal. The absorbance was analyzed at 570 nm (MCF-7, NCI-H460, and HeLa) or 550 nm (BJ) using an ELISA plate reader.

[3] = test system: NCI-H460 (lung cancer) cell line; test: Cytotoxicity MTT assay, NCI-H460 cells; assay type: cell-based; conditions: Homo sapiens, 48 h
Procedure: as §1

[4] = test system: HeLa (cervical cancer) cell line; test: Cytotoxicity MTT assay, HeLa cells; assay type: cell-based; conditions: Homo sapiens, 48 h
Procedure: as §1

[5] = Cytotoxicity MTT assay, BJ cells; assay type: cell-based; conditions: human, BJ normal human fibroblast cells, μM converted to μg mL^−1, read-out: IC50 cytotoxicity against human normal cell line (BJ)
Procedure: as §1

[6] = J774.2 mouse macrophages, LPS 30 μg mL^−1, Griess method, read-out: IC50 against nitric oxide (NO) production

Structure (SMILES)	IC50 ([1]; Mus musculus, J774.2, read-out: IC50 against nitric oxide (NO) production) [µg/mL]	inhibition at 50 µM [2] [%]	inhibition at 50 µM [3] [%]	inhibition at 50 µM [4] [%]	melting point [°C]	IC50 against nitric oxide (NO) production ([1]; J774.2 mouse macrophages, LPS 30 μg mL^−1, Griess method) [µg/mL]	IC50 ([3]; read-out: IC50 against NCI-H460) [µg/mL]	IC50 [1, 6] [µg/mL]	IC50 at 48 h [5] [µg/mL]
CC1CC2(C)C(CC1=O)C(O)CC1C3CCC(C)(O)C3(C)CCC12O (stereo not drawn) [Compound 7, 6β,9α,17β-Trihydroxy-2α,17α-dimethyl-5α-androstane-3-one]	40.2 ± 3.3 (≈ 115 µM)	< 50	< 50	< 50	139 to 141	–	–	–	–
CC(=O)O.CNC(=N)NCCC[C@H](N)C(=O)O [LNMMA, N^G monomethyl L-arginine acetate, reference compound]	–	–	–	–	–	24.2 ± 0.8	–	–	–
COc1cccc2c1C(=O)c1c(O)c3c(c(O)c1C2=O)C[C@@](O)(C(=O)CO)C[C@@H]3O[C@H]1C[C@H](N)[C@H](O)[C@H](C)O1 [doxorubicin, reference compound]	–	–	–	–	–	–	0.76 ± 0.05 (≈ 1.4 µM)	–	–
C[C@@H]1C[C@@]2(C)[C@H](CC1=O)[C@H](O)[C@H](O)[C@@H]1[C@@H]2CC[C@@]2(C)[C@H]1CC[C@]2(C)O [Compound 2, 6β,7β,17β-Trihydroxy-2α,17α-dimethyl-5α-androstane-3-one]	–	< 50	< 50	< 50	139 to 141	–	–	38.1 ± 0.5 (≈ 109 µM)	–
CC1CC2(C)C(CCC3C2CCC2(C)C3CCC2(C)O)CC1=O (centres unmarked) [Compound 1, methasterone]	–	< 50	< 50	< 50	–	–	–	23.9 ± 0.2 (≈ 75 µM)	8.01 ± 0.52 (≈ 25.1 µM)
